Tested on: human atrial cardiomyocytes from patients with sinus rhythm (SR)
Assay: Patch-clamp action potential recordings, atrial cardiomyocytes of sinus rhythm patients
Type: cell-based
Description: A total of 10 patients with sinus rhythm (SR) (N = 5) or atrial fibrillation (AF) (N = 5) undergoing open heart surgery for coronary artery bypass grafting, heart valve replacement or heart transplantation were included in the study (Table S7). A written informed consent was given by all patients. The study protocol involving human tissue samples was approved by the responsible Ethics Committee of the Medical Faculty of Heidelberg University (Germany; S-017/2013) and was conducted in accordance with the 1964 Declaration of Helsinki.
The right atrial human tissue samples were transported in chilled Ca^2+-free solution (100 mM NaCl, 10 mM KCl, 1.2 mM KH2PO4, 5 mM MgSO4, 50 mM taurine, 5 mM 3-(N-morpholino)propanesulfonic acid (MOPS), 30 mM 2,3-butanedione monoxime and 20 mM glucose, pH 7.0 with NaOH). After dissection into small chunks, the samples were rinsed for 5 minutes with calcium-free Tyrode's solution, which was oxygenated with 100% O2 at 37 °C. The samples were then digested with collagenase type I (288 U/ml; Worthington) and protease type XXIV (5 mg/ml; Sigma-Aldrich, Steinheim, Germany) for 10 to 15 min, followed by an increase in calcium concentration to 0.2 mM. After an additional 35 min of agitation in protease-free solution, rod-shaped single cardiomyocytes were harvested. The suspension was centrifuged, and the cells were resuspended in storage (“Kraftbrühe”, KB) medium (20 mM KCl, 10 mM KH2PO4, 25 mM glucose, 40 mM D-Mannitol, 70 mM K glutamate, 10 mM β-hydroxybutyrate, 20 mM taurine, 10 mM ethylene glycol tetraacetic acid (EGTA), and 1% albumin) until usage in patch-clamp experiments.
Patch-clamp glass pipettes were fabricated from borosilicate glass (1B120F-4; World Precision Instruments). After back-filling with patch-clamp internal solution (134 mM K gluconate, 6 mM NaCl, 1.2 mM MgCl2, 1 mM Mg-ATP, 10 mM HEPES, pH 7.2 with KOH), tip resistances ranged from 5 to 10 MΩ. All experiments were carried out at room temperature under constant superfusion with patch-clamp extracellular solution containing 137 mM NaCl, 5.4 mM KCl, 1 mM MgCl2, 2 mM CaCl2, 10 mM HEPES, 10 mM glucose (pH 7.3 with NaOH). AP-recordings were performed in current clamp mode: The holding current was adjusted such that the cell’s resting membrane potential was approximately −70 mV at baseline. APs were induced by short (5 ms) depolarizing current pulses at a rate of 0.5 Hz. Data was not adjusted for potential differences caused by liquid junctions, and no leak subtraction was performed.
Data acquisition and analysis were performed using the pCLAMP10 software (Axon Instruments) and statistical analysis was done using Prism 8 (GraphPad Software). Data is presented as the mean ± standard error of the mean (SEM). Statistical comparisons were made using Dunnett’s post hoc test. A p value of < 0.05 was considered significant.

[1] = SR, 1, 6.25 and 12.5 μM, significant at 12.5 μM (p < 0.05)

CCCCN(CCCC)CC(=O)Nc1ccc(OC)cc1OC [Compound 6f, 2-(dibutylamine)-N-(2,4-dimethoxiphenyl)acetamide]
Resting membrane potential (RMP) (SR, 6.25 μM): slight increase
APD50 vs baseline (SR, 1, 6.25 and 12.5 μM): only minor effects
APD90 vs baseline (SR, 1, 6.25 and 12.5 μM): only minor effects
Action potential amplitude (APA) vs baseline [1]: concentration-dependent decrease
Maximal upstroke velocity (dV/dtmax) vs baseline [1]: concentration-dependent decrease

From publication PMC12131194, “Rational design, synthesis, and evaluation of novel polypharmacological compounds targeting NaV1.5, KV1.5, and K2P channels for atrial fibrillation” (The Journal of Biological Chemistry, 2025)
